Measured values taken from the NIST ThermoML archive (doi:10.1016/j.jct.2019.03.007).

Experiment: molar heat capacity at constant pressure
Details: 101.33 kPa, DSC

O=[N+]([O-])[O-].O=[N+]([O-])[O-].[Ca+2] [calcium nitrate]
Details | molar heat capacity at constant pressure [J/K/mol]
140.18 K, Crystal 2 | 107.65
141.18 K, Crystal 2 | 107.79
142.18 K, Crystal 2 | 107.93
143.18 K, Crystal 2 | 108.08
144.18 K, Crystal 2 | 108.26
145.18 K, Crystal 2 | 108.53
146.18 K, Crystal 2 | 108.77
147.18 K, Crystal 2 | 109.04
148.18 K, Crystal 2 | 109.41
149.18 K, Crystal 2 | 109.53
150.18 K, Crystal 2 | 109.66
151.18 K, Crystal 2 | 110.04
152.18 K, Crystal 2 | 110.2
153.18 K, Crystal 2 | 110.55
154.18 K, Crystal 2 | 110.68
155.18 K, Crystal 2 | 111.12
156.18 K, Crystal 2 | 111.45
157.18 K, Crystal 2 | 111.69
158.18 K, Crystal 2 | 111.99
159.18 K, Crystal 2 | 112.21
160.18 K, Crystal 2 | 112.56
161.18 K, Crystal 2 | 112.86
162.18 K, Crystal 2 | 113.24
163.18 K, Crystal 2 | 113.35
164.18 K, Crystal 2 | 113.45
165.18 K, Crystal 2 | 113.94
166.18 K, Crystal 2 | 114.12
167.18 K, Crystal 2 | 114.45
168.18 K, Crystal 2 | 114.73
169.18 K, Crystal 2 | 114.98
170.18 K, Crystal 2 | 115.36
171.18 K, Crystal 2 | 115.66
172.18 K, Crystal 2 | 116.1
173.18 K, Crystal 2 | 116.37
174.18 K, Crystal 2 | 116.66
175.18 K, Crystal 2 | 117.01
176.18 K, Crystal 2 | 117.33
177.18 K, Crystal 2 | 117.64
178.18 K, Crystal 2 | 117.92
179.18 K, Crystal 2 | 118.12
180.18 K, Crystal 2 | 118.62
181.18 K, Crystal 2 | 118.7
182.18 K, Crystal 2 | 119.16
183.18 K, Crystal 2 | 119.36
184.18 K, Crystal 2 | 119.66
185.18 K, Crystal 2 | 119.91
186.18 K, Crystal 2 | 120.23
187.18 K, Crystal 2 | 120.54
188.18 K, Crystal 2 | 120.8
189.18 K, Crystal 2 | 121.2
190.18 K, Crystal 2 | 121.32
191.18 K, Crystal 2 | 121.79
192.18 K, Crystal 2 | 122.02
193.18 K, Crystal 2 | 122.2
194.18 K, Crystal 2 | 122.58
195.18 K, Crystal 2 | 122.7
196.18 K, Crystal 2 | 123.1
197.18 K, Crystal 2 | 123.28
198.18 K, Crystal 2 | 123.48
199.18 K, Crystal 2 | 123.86
200.18 K, Crystal 2 | 123.94
201.18 K, Crystal 2 | 124.39
202.18 K, Crystal 2 | 124.62
203.18 K, Crystal 2 | 124.88
204.18 K, Crystal 2 | 125.24
205.18 K, Crystal 2 | 125.55
206.18 K, Crystal 2 | 125.8
207.18 K, Crystal 2 | 126.11
208.18 K, Crystal 2 | 126.43
209.18 K, Crystal 2 | 126.73
210.18 K, Crystal 2 | 126.95
211.18 K, Crystal 2 | 127.36
212.18 K, Crystal 2 | 127.6
213.18 K, Crystal 2 | 127.82
214.18 K, Crystal 2 | 128.19
215.18 K, Crystal 2 | 128.55
216.18 K, Crystal 2 | 128.82
217.18 K, Crystal 2 | 129.14
218.18 K, Crystal 2 | 129.41
219.18 K, Crystal 2 | 129.69
220.18 K, Crystal 2 | 129.91
221.18 K, Crystal 2 | 130.24
222.18 K, Crystal 2 | 130.55
223.18 K, Crystal 2 | 130.83
224.18 K, Crystal 2 | 131.03
225.18 K, Crystal 2 | 131.19
226.18 K, Crystal 2 | 131.52
227.18 K, Crystal 2 | 131.78
228.18 K, Crystal 2 | 132.06
229.18 K, Crystal 2 | 132.35
230.18 K, Crystal 2 | 132.6
231.18 K, Crystal 2 | 132.91
232.18 K, Crystal 2 | 133.16
233.18 K, Crystal 2 | 133.4
234.18 K, Crystal 2 | 133.66
235.18 K, Crystal 2 | 134.04
236.18 K, Crystal 2 | 134.28
237.18 K, Crystal 2 | 134.56
238.18 K, Crystal 2 | 134.67
239.18 K, Crystal 2 | 134.73
240.18 K, Crystal 2 | 134.88
241.18 K, Crystal 2 | 134.93
242.18 K, Crystal 2 | 135.27
243.18 K, Crystal 2 | 135.75
244.18 K, Crystal 2 | 136.33
245.18 K, Crystal 2 | 136.84
246.18 K, Crystal 2 | 137.21
247.18 K, Crystal 2 | 137.52
248.18 K, Crystal 2 | 137.79
249.18 K, Crystal 2 | 138.02
250.18 K, Crystal 2 | 138.35
251.18 K, Crystal 2 | 138.62
252.18 K, Crystal 2 | 138.99
253.18 K, Crystal 2 | 139.21
254.18 K, Crystal 2 | 139.61
255.18 K, Crystal 2 | 139.92
256.18 K, Crystal 2 | 140.17
257.18 K, Crystal 2 | 140.52
258.18 K, Crystal 2 | 140.74
259.18 K, Crystal 2 | 140.96
260.18 K, Crystal 2 | 141.24
261.18 K, Crystal 2 | 141.46
262.18 K, Crystal 2 | 141.71
263.18 K, Crystal 2 | 141.92
264.18 K, Crystal 2 | 142.15
265.18 K, Crystal 2 | 142.33
266.18 K, Crystal 2 | 142.65
267.18 K, Crystal 2 | 142.87
268.18 K, Crystal 2 | 143.14
269.18 K, Crystal 2 | 143.48
270.18 K, Crystal 2 | 143.75
271.18 K, Crystal 2 | 144.11
272.18 K, Crystal 2 | 144.39
273.18 K, Crystal 2 | 144.69
274.18 K, Crystal 2 | 145.05
275.18 K, Crystal 2 | 145.33
276.18 K, Crystal 2 | 145.65
277.18 K, Crystal 2 | 145.91
278.18 K, Crystal 2 | 146.15
279.18 K, Crystal 2 | 146.49
280.18 K, Crystal 2 | 146.74
281.18 K, Crystal 2 | 147.05
282.18 K, Crystal 2 | 147.32
283.18 K, Crystal 2 | 147.62
284.18 K, Crystal 2 | 148.05
285.18 K, Crystal 2 | 148.47
286.18 K, Crystal 2 | 149.01
287.18 K, Crystal 2 | 149.55
288.18 K, Crystal 2 | 150.15
289.18 K, Crystal 2 | 150.77
290.18 K, Crystal 1 | 151.37
291.18 K, Crystal 1 | 151.12
292.18 K, Crystal 1 | 150.21
293.18 K, Crystal 1 | 149.35
294.18 K, Crystal 1 | 148.69
295.18 K, Crystal 1 | 148.17
296.18 K, Crystal 1 | 147.88
297.18 K, Crystal 1 | 147.79
298.18 K, Crystal 1 | 147.74
299.18 K, Crystal 1 | 147.76
300.18 K, Crystal 1 | 147.88
301.18 K, Crystal 1 | 148.08
302.18 K, Crystal 1 | 148.34
303.18 K, Crystal 1 | 148.7
304.18 K, Crystal 1 | 149.02
305.18 K, Crystal 1 | 149.46
306.18 K, Crystal 1 | 149.88
307.18 K, Crystal 1 | 150.3
308.18 K, Crystal 1 | 150.74
309.18 K, Crystal 1 | 151.11
310.18 K, Crystal 1 | 151.52
311.18 K, Crystal 1 | 151.89
312.18 K, Crystal 1 | 152.28
313.18 K, Crystal 1 | 152.66
314.18 K, Crystal 1 | 153.07
315.18 K, Crystal 1 | 153.52
316.18 K, Crystal 1 | 153.88
317.18 K, Crystal 1 | 154.27
318.18 K, Crystal 1 | 154.64
319.18 K, Crystal 1 | 154.97
320.18 K, Crystal 1 | 155.32
321.18 K, Crystal 1 | 155.55
322.18 K, Crystal 1 | 155.81
323.18 K, Crystal 1 | 155.97
324.18 K, Crystal 1 | 156.09
325.18 K, Crystal 1 | 156.21
326.18 K, Crystal 1 | 156.25
327.18 K, Crystal 1 | 156.31
328.18 K, Crystal 1 | 156.31
328.78 K, Crystal 1 | 142.63
329.18 K, Crystal 1 | 156.34
329.78 K, Crystal 1 | 143.76
330.18 K, Crystal 1 | 156.4
330.78 K, Crystal 1 | 144.52
331.18 K, Crystal 1 | 156.44
331.78 K, Crystal 1 | 145.04
332.18 K, Crystal 1 | 156.55
332.78 K, Crystal 1 | 145.41
333.18 K, Crystal 1 | 156.64
333.78 K, Crystal 1 | 145.78
334.18 K, Crystal 1 | 156.71
334.78 K, Crystal 1 | 146.14
335.18 K, Crystal 1 | 156.85
335.78 K, Crystal 1 | 146.49
336.18 K, Crystal 1 | 156.94
336.78 K, Crystal 1 | 146.84
337.18 K, Crystal 1 | 157.08
337.78 K, Crystal 1 | 147.18
338.18 K, Crystal 1 | 157.1
338.78 K, Crystal 1 | 147.5
339.18 K, Crystal 1 | 157.13
339.78 K, Crystal 1 | 147.78
340.18 K, Crystal 1 | 157.13
340.78 K, Crystal 1 | 148.04
341.18 K, Crystal 1 | 157.22
341.78 K, Crystal 1 | 148.31
342.18 K, Crystal 1 | 157.26
342.78 K, Crystal 1 | 148.58
343.18 K, Crystal 1 | 157.38
343.78 K, Crystal 1 | 148.83
344.18 K, Crystal 1 | 157.49
344.78 K, Crystal 1 | 149.08
345.18 K, Crystal 1 | 157.55
345.78 K, Crystal 1 | 149.33
346.18 K, Crystal 1 | 157.7
346.78 K, Crystal 1 | 149.56
347.18 K, Crystal 1 | 157.84
347.78 K, Crystal 1 | 149.77
348.18 K, Crystal 1 | 158
348.78 K, Crystal 1 | 149.98
349.18 K, Crystal 1 | 158.16
349.78 K, Crystal 1 | 150.2
350.18 K, Crystal 1 | 158.3
350.78 K, Crystal 1 | 150.42
351.18 K, Crystal 1 | 158.39
351.78 K, Crystal 1 | 150.66
352.18 K, Crystal 1 | 158.48
352.78 K, Crystal 1 | 150.89
353.18 K, Crystal 1 | 158.58
353.78 K, Crystal 1 | 151.12
354.18 K, Crystal 1 | 158.8
354.78 K, Crystal 1 | 151.32
355.18 K, Crystal 1 | 158.94
355.78 K, Crystal 1 | 151.51
356.18 K, Crystal 1 | 159.08
356.78 K, Crystal 1 | 151.68
357.18 K, Crystal 1 | 159.2
357.78 K, Crystal 1 | 151.85
358.18 K, Crystal 1 | 159.38
358.78 K, Crystal 1 | 152.01
359.18 K, Crystal 1 | 159.61
359.78 K, Crystal 1 | 152.18
360.18 K, Crystal 1 | 159.81
360.78 K, Crystal 1 | 152.37
361.18 K, Crystal 1 | 160.09
